Experimental data reported in patent US20210393538A1, “SILICA-BASED DRUG NANOCAPSULES” (priority 2018, published 2021).
Counter-ions that a name gives are not always drawn.

Columns and labels:
Toxicity studies = assay type: in vivo, balb/c mice
Protocol: Small animal models. For imaging and therapy studies, a U87MG subcutaneous mouse model was used. […] For toxicity studies, normal 5-6 week old balb/c mice (Envigo laboratories). All the animal studied were performed according to a protocol approved by the Institutional Animal Care and Use Committee (IACUC) of University of Georgia. Toxicity studies. Fifteen normal balb/c mice were randomly divided into 5 groups and received regimens specified in the in vivo therapy study section. The body weight and anal temperature of each mouse were measured daily at the same time (starting from 6 days before injection through Day 6). On Day 7, all mice were euthanized and the whole blood was collected. Part of the blood samples were used for a complete blood count (CBC) test. […] All tests were conducted by following the vendors' protocols. CRP and TNF-α kits were purchased from RayBiotech, ALT (MAK055) and AST (MAK052) kits from Sigma-Aldrich, and BUN from Arbor Assays. Each assay was repeated at least twice.

U87MG tumors = assay: In vivo therapy study; set-up: species or system nude mice
Protocol: Small animal models. For imaging and therapy studies, a U87MG subcutaneous mouse model was used. The animal model was established by subcutaneously inoculating 1 million U87MG cells onto the right hind leg or the right flank (for PET imaging only) of a 5-6 week old athymic female nude mice (Harlan). For toxicity studies, normal 5-6 week old balb/c mice (Envigo laboratories). All the animal studied were performed according to a protocol approved by the Institutional Animal Care and Use Committee (IACUC) of University of Georgia.
In vivo therapy study. Treatments started when tumor size reached 100-150 mm^3. 25 mice were randomly divided into 5 groups and were i.v. injected with PBS, free Dox, DSN-52 in PBS, MF cells, and DSN-MF cells on Day 0. Dox, DSN-52, and DSN-MF were injected at 3 mg Dox kg^−1, and 4 million cells were injected into the mice in MF and DSN-MF groups. The body weight and tumor volume of each mouse were measured every other day for 2 weeks. The tumor volume was calculated by the following equation: tumor volume=0.5×length×(width)^2, where length≥width. Mice were euthanized once the tumor volume was above 1,700 mm^3.

RAW264.7 cells = assay: Macrophage viability (MTT, Live/Dead Calcein AM/EthD-III); assay type: cell-based; conditions: Mus musculus, RAW264.7 cells incubated 24 h
Protocol: In vitro cellular loading studies. RAW264.7 (murine macrophages) and U87MG (human glioblastoma) were purchased from ATCC. RAW264.7 cells were cultured in RPMI1640 medium (Corning, USA) supplemented with 10% FBS (Corning, USA) and 1% penicillin-streptomycin (MediaTech, USA). During the nanoparticle loading stage, FBS-free RPMI1640 medium was used for culturing. U87MG cells were grown in DMEM medium (Corning, USA) supplemented with 10% FBS, 1% non-essential amino acids, and 1% penicillin-streptomycin. These two cell lines were incubated under 37° C. and 5% CO2 in a humid chamber. […] To determine the amount of Dox loaded into cells, DSN-laden cells were counted and then lysed by sonication in PBS (pH 5.0). The amounts of released Dox was measured by spectroscopic analysis. The Dox content on a per cell basis was calculated compared with macrophages without nanoparticle loading. […] To evaluate the impact of loaded DSNs on macrophages, the viability change was first assessed at different time points post nanoparticle loading by 3-(4,5-dimethythiazon-2-yl)-2,5-diphenyl tetrazolium bromide (MTT) assay or Live/Dead Cytotoxicity assay and the results were compared with normal macrophages. […]

`COc1cccc2c1C(=O)c1c(O)c3c(c(O)c1C2=O)C[C@@](O)(C(=O)CO)C[C@@H]3O[C@H]1C[C@H](N)[C@H](O)[C@H](C)O1` [Dox, doxorubicin hydrochloride salt] showed a Bands (Toxicity studies; CBC, Day 7) of 12%, an HCT (Toxicity studies; CBC, Day 7) of 48.9% and an HGB (Toxicity studies; CBC, Day 7) of 44.0 g/dL. It also gave a Lymphs (Toxicity studies; CBC, Day 7) of 82%, an MCH (Toxicity studies; CBC, Day 7) of 31.6 pg and an MCHC (Toxicity studies; CBC, Day 7) of 62 g/dL. The MCV (Toxicity studies; CBC, Day 7) was 15.4 fL, the Monos (Toxicity studies; CBC, Day 7) was 6% and the RBC (Toxicity studies; CBC, Day 7) was 1.39e+07 µL⁻¹. For the same molecule, the Segs (Toxicity studies; CBC, Day 7) was 0%, the WBC (Toxicity studies; CBC, Day 7) was 13490 µL⁻¹ and the “complete blood count (CBC) analysis, overall” value (Toxicity studies; Day 7) was “abnormalities”. The body weight change (Toxicity studies; normal balb/c mice, Day 2, hydrochloride salt) was “small degree of body weight loss”, the “tumor growth inhibition (TGI) rate” value (U87MG tumors; Day 14, relative to the PBS group) was 24.84% and the median survival (U87MG tumors; one i.v. dose on Day 0) was 16 days. The “average tumor volume on Day 14” value (U87MG tumors; one i.v. dose on Day 0, 3 mg Dox kg^−1 and/or ˜4×10^6 cells per mouse) was 1328.6 mm^3 and the IC50 (RAW264.7 cells) was 1.5 µg/mL.
